ChEMBL document CHEMBL4270577, “Synthesis, anticancer activity and molecular modeling studies of 1,2,4-triazole derivatives as EGFR inhibitors” (Eur J Med Chem, 2018)

Tests used:
[1] = test system: MOLT-4; assay: Growth inhibition of human MOLT4 cells at 10 uM incubated for 48 hrs by sulforhodamine B assay relative to control; assay type: functional; conditions: MOLT-4, 48 h, read-out: GI
[2] = test system: SR; assay: Growth inhibition of human SR cells at 10 uM incubated for 48 hrs by sulforhodamine B assay relative to control; assay type: functional; conditions: read-out: GI
[3] = test system: EKVX; assay: Growth inhibition of human EKVX cells at 10 uM incubated for 48 hrs by sulforhodamine B assay relative to control; assay type: functional; conditions: read-out: GI
[4] = test system: NCI-H226; assay: Growth inhibition of human NCI-H226 cells at 10 uM incubated for 48 hrs by sulforhodamine B assay relative to control; assay type: functional; conditions: NCI-H226, 48 h, read-out: GI
[5] = test system: HCT-116; assay: Growth inhibition of human HCT116 cells at 10 uM incubated for 48 hrs by sulforhodamine B assay relative to control; assay type: functional; conditions: HCT-116, 48 h, read-out: GI
[6] = test system: KM12; assay: Growth inhibition of human KM12 cells at 10 uM incubated for 48 hrs by sulforhodamine B assay relative to control; assay type: functional; conditions: KM12, 48 h, read-out: GI
[7] = test system: SF-295; assay: Growth inhibition of human SF295 cells at 10 uM incubated for 48 hrs by sulforhodamine B assay relative to control; assay type: functional; conditions: SF-295, 48 h, read-out: GI
[8] = test system: SF-539; assay: Growth inhibition of human SF539 cells at 10 uM incubated for 48 hrs by sulforhodamine B assay relative to control; assay type: functional; conditions: SF-539, 48 h, read-out: GI
[9] = test system: LOX IMVI; assay: Growth inhibition of human LOXIMVI cells at 10 uM incubated for 48 hrs by sulforhodamine B assay relative to control; assay type: functional; conditions: read-out: GI
[10] = test system: MDA-MB-435; assay: Growth inhibition of human MDA-MB-435 cells at 10 uM incubated for 48 hrs by sulforhodamine B assay relative to control; assay type: functional; conditions: MDA-MB-435, 48 h, read-out: GI
[11] = test system: UACC-257; assay: Growth inhibition of human UACC257 cells at 10 uM incubated for 48 hrs by sulforhodamine B assay relative to control; assay type: functional; conditions: UACC-257, 48 h, read-out: GI
[12] = test system: UACC-62; assay: Growth inhibition of human UACC62 cells at 10 uM incubated for 48 hrs by sulforhodamine B assay relative to control; assay type: functional; conditions: UACC-62, 48 h, read-out: GI
[13] = test system: IGROV-1; assay: Growth inhibition of human IGROV1 cells at 10 uM incubated for 48 hrs by sulforhodamine B assay relative to control; assay type: functional; conditions: IGROV-1, 48 h, read-out: GI
[14] = test system: NCI/ADR-RES; assay: Growth inhibition of human NCI/ADR-RES cells at 10 uM incubated for 48 hrs by sulforhodamine B assay relative to control; assay type: functional; conditions: read-out: GI
[15] = test system: A498; assay: Growth inhibition of human A498 cells at 10 uM incubated for 48 hrs by sulforhodamine B assay relative to control; assay type: functional; conditions: A498, 48 h, read-out: GI
[16] = test system: TK-10; assay: Growth inhibition of human TK10 cells at 10 uM incubated for 48 hrs by sulforhodamine B assay relative to control; assay type: functional; conditions: TK-10, 48 h, read-out: GI
[17] = test system: UO-31; assay: Growth inhibition of human UO31 cells at 10 uM incubated for 48 hrs by sulforhodamine B assay relative to control; assay type: functional; conditions: UO-31, 48 h, read-out: GI
[18] = test system: PC-3; assay: Growth inhibition of human PC3 cells at 10 uM incubated for 48 hrs by sulforhodamine B assay relative to control; assay type: functional; conditions: PC-3, 48 h, read-out: GI
[19] = test system: T47D; assay: Growth inhibition of human T47D cells at 10 uM incubated for 48 hrs by sulforhodamine B assay relative to control; assay type: functional; conditions: read-out: GI
[20] = test system: MDA-MB-468; assay: Growth inhibition of human MDA-MB-468 cells at 10 uM incubated for 48 hrs by sulforhodamine B assay relative to control; assay type: functional; conditions: MDA-MB-468, 48 h, read-out: GI
[21] = test system: A549; assay: Cytotoxicity against human A549/ATCC cells incubated for 48 hrs by sulforhodamine B assay; assay type: functional; conditions: A549, 48 h
[22] = test system: EKVX; assay: Cytotoxicity against human EKVX cells incubated for 48 hrs by sulforhodamine B assay; assay type: functional
[23] = test system: COLO 205; assay: Cytotoxicity against human COLO205 cells incubated for 48 hrs by sulforhodamine B assay; assay type: functional; conditions: COLO 205, 48 h
[24] = test system: HCT-116; assay: Cytotoxicity against human HCT116 cells incubated for 48 hrs by sulforhodamine B assay; assay type: functional; conditions: HCT-116, 48 h
[25] = test system: LOX IMVI; assay: Cytotoxicity against human LOXIMVI cells incubated for 48 hrs by sulforhodamine B assay; assay type: functional
[26] = test system: SK-MEL-2; assay: Cytotoxicity against human SK-MEL-2 cells incubated for 48 hrs by sulforhodamine B assay; assay type: functional; conditions: SK-MEL-2, 48 h
[27] = test system: OVCAR-5; assay: Cytotoxicity against human OVCAR5 cells incubated for 48 hrs by sulforhodamine B assay; assay type: functional; conditions: OVCAR-5, 48 h
[28] = test system: CAKI-1; assay: Cytotoxicity against human Caki1 cells incubated for 48 hrs by sulforhodamine B assay; assay type: functional; conditions: CAKI-1, 48 h
[29] = test system: TK-10; assay: Cytotoxicity against human TK10 cells incubated for 48 hrs by sulforhodamine B assay; assay type: functional; conditions: TK-10, 48 h
[30] = test system: PANC-1; assay: Antiproliferative activity against human PANC1 cells after 48 hrs by propidium iodide staining-based fluorometric analysis; assay type: functional, cell-based; conditions: PANC-1, 48 h
[31] = test system: MIA PaCa-2; assay: Antiproliferative activity against human MIAPaCa2 cells after 48 hrs by propidium iodide staining-based fluorometric analysis; assay type: functional, cell-based; conditions: MIA PaCa-2, 48 h
[32] = test system: HT-29; assay: Antiproliferative activity against human HT-29 cells after 48 hrs by propidium iodide staining-based fluorometric analysis; assay type: functional, cell-based; conditions: HT-29, 48 h
[33] = test system: NCI-H460; assay: Antiproliferative activity against human H460 cells after 48 hrs by propidium iodide staining-based fluorometric analysis; assay type: functional, cell-based; conditions: NCI-H460, 48 h
[34] = test system: HL-60(TB); assay: Growth inhibition of human HL-60(TB) cells at 10 uM incubated for 48 hrs by sulforhodamine B assay relative to control; assay type: functional; conditions: HL-60, 48 h, read-out: GI
[35] = test system: SK-MEL-28; assay: Growth inhibition of human SK-MEL-28 cells at 10 uM incubated for 48 hrs by sulforhodamine B assay relative to control; assay type: functional; conditions: SK-MEL-28, 48 h, read-out: GI
[36] = test system: BT-549; assay: Growth inhibition of human BT549 cells at 10 uM incubated for 48 hrs by sulforhodamine B assay relative to control; assay type: functional; conditions: BT-549, 48 h, read-out: GI
[37] = read-out: LC50 (the source's name)

Work on `COc1ccc(-c2nc3sc(-c4ccc(Cl)cc4)cn3n2)cc1` yielded an inhibition of growth at 10 µM [1] of 17.4%, an inhibition of growth at 10 µM [2] of 48.9% and an inhibition of growth at 10 µM [3] of 52.5%. For the same compound, the inhibition of growth at 10 µM [4] was 49.9%, the inhibition of growth at 10 µM [5] was -16% and the inhibition of growth at 10 µM [6] was 45.3%. It also gave an inhibition of growth at 10 µM [7] of 75.8%, an inhibition of growth at 10 µM [8] of 84.6% and an inhibition of growth at 10 µM [9] of 45.8%. The inhibition of growth at 10 µM [10] was 25%, the inhibition of growth at 10 µM [11] was 15.4% and the inhibition of growth at 10 µM [12] was 31.4%. For the same compound, the inhibition of growth at 10 µM [13] was 92.9%, the inhibition of growth at 10 µM [14] was 54.4% and the inhibition of growth at 10 µM [15] was -25.8%. The inhibition of growth at 10 µM [16] was -30.8%, the inhibition of growth at 10 µM [17] was -7.46% and the inhibition of growth at 10 µM [18] was 41.9%. It also gave an inhibition of growth at 10 µM [19] of 45.1%, an inhibition of growth at 10 µM [20] of 66.6% and a GI50 [21] of 1.59 µM. The TGI [21] was 5.89 µM, the CC50 [21, 37] was 46.9 µM and the GI50 [22] was 4.82 µM. The TGI [22] was > 50 µM, the CC50 [22, 37] was > 50 µM and the GI50 [23] was 2.56 µM. For the same compound, the TGI [23] was > 50 µM, the CC50 [23, 37] was > 50 µM and the GI50 [24] was 1.21 µM. The TGI [24] was 3.48 µM, the CC50 [24, 37] was > 50 µM and the GI50 [25] was > 50 µM. The TGI [25] was > 50 µM, the CC50 [25, 37] was > 50 µM and the GI50 [26] was > 50 µM. For the same compound, the TGI [26] was > 50 µM, the CC50 [26, 37] was > 50 µM and the GI50 [27] was 2.78 µM. For the same compound, the TGI [27] was > 50 µM, the CC50 [27, 37] was > 50 µM and the GI50 [28] was 1.79 µM. It also gave a TGI [28] of 8.92 µM, a CC50 [28, 37] of 48.9 µM and a GI50 [29] of 2.01 µM. For the same compound, the TGI [29] was 5.62 µM, the CC50 [29, 37] was 34.8 µM and the IC50 [30] was 2.8 µM. It also gave an IC50 [31] of 2.6 µM, an IC50 [32] of 2.4 µM and an IC50 [33] of 1.6 µM.

With `COc1ccc(-c2nc3sc(-c4ccccc4)cn3n2)cc1` the inhibition of growth at 10 µM [34] was 32%, the inhibition of growth at 10 µM [1] was 49% and the inhibition of growth at 10 µM [2] was 58%. It also gave an inhibition of growth at 10 µM [3] of 37%, an inhibition of growth at 10 µM [4] of 23% and an inhibition of growth at 10 µM [5] of 60%. It also gave an inhibition of growth at 10 µM [6] of 70%, an inhibition of growth at 10 µM [7] of 38% and an inhibition of growth at 10 µM [8] of 24%. It also gave an inhibition of growth at 10 µM [9] of 45%, an inhibition of growth at 10 µM [10] of -8.6% and an inhibition of growth at 10 µM [35] of 32%. For the same compound, the inhibition of growth at 10 µM [11] was 28%, the inhibition of growth at 10 µM [12] was 42% and the inhibition of growth at 10 µM [13] was 52%. For the same compound, the inhibition of growth at 10 µM [14] was 66%, the inhibition of growth at 10 µM [15] was 56% and the inhibition of growth at 10 µM [17] was 38%. It also gave an inhibition of growth at 10 µM [18] of 33%, an inhibition of growth at 10 µM [36] of 26% and an inhibition of growth at 10 µM [19] of 65%. For the same compound, the inhibition of growth at 10 µM [20] was 81%, the IC50 [30] was 4.5 µM and the IC50 [31] was 4.9 µM. For the same compound, the IC50 [32] was 6.6 µM and the IC50 [33] was 6.9 µM.

`c1ccc(-c2nc3sc(-c4ccccc4)cn3n2)cc1` showed an inhibition of growth at 10 µM [34] of 21%, an inhibition of growth at 10 µM [1] of 11% and an inhibition of growth at 10 µM [2] of 9%. The inhibition of growth at 10 µM [3] was 21%, the inhibition of growth at 10 µM [4] was 27% and the inhibition of growth at 10 µM [5] was 11%. The inhibition of growth at 10 µM [6] was 18%, the inhibition of growth at 10 µM [9] was 16% and the inhibition of growth at 10 µM [11] was 13%. The inhibition of growth at 10 µM [12] was 33%, the inhibition of growth at 10 µM [13] was 43% and the inhibition of growth at 10 µM [14] was 14%. For the same compound, the inhibition of growth at 10 µM [15] was 13%, the inhibition of growth at 10 µM [17] was 53% and the inhibition of growth at 10 µM [18] was 37%. For the same compound, the inhibition of growth at 10 µM [19] was 63%, the inhibition of growth at 10 µM [20] was 14% and the IC50 [30] was 7.2 µM. For the same compound, the IC50 [31] was 9.2 µM, the IC50 [32] was 8.4 µM and the IC50 [33] was 8.3 µM.
